Calls of active or inactive are those of the source.
Assays:
[1] = target: Intestinal-type alkaline phosphatase (Homo sapiens, UniProt P09923); experiment: Dose Response confirmation of uHTS hits from a small molecule inhibitors of human intestinal alkaline phosphatase via a luminescent assay. [Related pubchem assays (depositor defined):AID2544, AID2574]; format: functional
HeLa = experiment: viability loss in HeLa cells – cell-based, 24 h, cherry-picked samples, cytotoxicity control, dose response (AID 504726); format: functional; conditions: Homo sapiens;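 also: potency for cytotoxicity as loss of luminescence signal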
[2] = target: Neuropeptide Y receptor type 1 (Homo sapiens, UniProt P25929); format: functional;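 also: HEK293 cells with a CNG channel challenged with NPY then isoproterenol; potency as antagonist that reverses NPY suppression of cAMP signal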
[3] = target: Luciferin 4-monooxygenase (Photinus pyralis, UniProt P08659); experiment: inhibition of purified Photinus pyralis luciferase – biochemical, luminescence, dose response (AID 1891)
[4] = Luminescence Cell-Based Dose Confirmation HTS to Identify Inhibitors of Platelet Dense Granule Release. [Related pubchem assays: 1663 (Primary HTS), 1678 (Summary of Project)]; format: functional
[5] = target: Neuropeptide Y receptor type 2 (Homo sapiens, UniProt P49146); format: functional, cell-based;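 also: HEK293 cells expressing the receptor and a CNG channel; stimulus was NPY near EC95 followed by isoproterenol to raise cAMP; antagonist potency measured as restoring cAMP signal that NPY suppresses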
Streptococcus = experiment: Luminescence Microorganism-Based Dose Response Follow up to Identify Compounds Cytotoxic to Streptococcus. [Related pubchem assays: 1677 (Project Summary), 1915, 1914, 1902 (Retest at Dose), 1900 (Counter Screen), 1662 (Primary HTS)]; format: functional, organism-based
[6] = target: T1, Mannose-6-phosphate isomerase (Homo sapiens, UniProt P34949); experiment: MPI enzyme activity inhibition – biochemical, fluorescence intensity, coupled assay, primary screen (AID 1209)
T1 sequence (P34949 whole entry): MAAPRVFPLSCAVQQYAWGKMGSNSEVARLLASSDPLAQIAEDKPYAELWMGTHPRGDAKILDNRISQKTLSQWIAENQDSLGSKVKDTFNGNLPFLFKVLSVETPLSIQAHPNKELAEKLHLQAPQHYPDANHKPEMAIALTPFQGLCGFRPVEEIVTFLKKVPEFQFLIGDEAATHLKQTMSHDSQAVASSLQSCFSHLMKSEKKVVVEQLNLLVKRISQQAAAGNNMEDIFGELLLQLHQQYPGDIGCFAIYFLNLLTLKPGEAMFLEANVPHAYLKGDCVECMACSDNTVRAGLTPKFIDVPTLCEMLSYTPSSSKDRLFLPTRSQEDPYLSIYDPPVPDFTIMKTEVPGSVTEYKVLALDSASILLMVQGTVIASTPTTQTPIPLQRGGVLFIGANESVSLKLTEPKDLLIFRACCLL

[7] = target: T1, Mannose-6-phosphate isomerase; experiment: MPI inhibition at elevated mannose 6-phosphate – biochemical, fluorescence intensity, high mannose 6-phosphate, primary screen (AID 1220)
[8] = target: T2, Replicative DNA helicase DnaB (Mycobacterium tuberculosis, UniProt P9WMR3); experiment: DnaB intein splicing inhibitors, dose response, biochemical, cell-free fluorescence (AID 449749); format: functional
T2 sequence (P9WMR3 whole entry): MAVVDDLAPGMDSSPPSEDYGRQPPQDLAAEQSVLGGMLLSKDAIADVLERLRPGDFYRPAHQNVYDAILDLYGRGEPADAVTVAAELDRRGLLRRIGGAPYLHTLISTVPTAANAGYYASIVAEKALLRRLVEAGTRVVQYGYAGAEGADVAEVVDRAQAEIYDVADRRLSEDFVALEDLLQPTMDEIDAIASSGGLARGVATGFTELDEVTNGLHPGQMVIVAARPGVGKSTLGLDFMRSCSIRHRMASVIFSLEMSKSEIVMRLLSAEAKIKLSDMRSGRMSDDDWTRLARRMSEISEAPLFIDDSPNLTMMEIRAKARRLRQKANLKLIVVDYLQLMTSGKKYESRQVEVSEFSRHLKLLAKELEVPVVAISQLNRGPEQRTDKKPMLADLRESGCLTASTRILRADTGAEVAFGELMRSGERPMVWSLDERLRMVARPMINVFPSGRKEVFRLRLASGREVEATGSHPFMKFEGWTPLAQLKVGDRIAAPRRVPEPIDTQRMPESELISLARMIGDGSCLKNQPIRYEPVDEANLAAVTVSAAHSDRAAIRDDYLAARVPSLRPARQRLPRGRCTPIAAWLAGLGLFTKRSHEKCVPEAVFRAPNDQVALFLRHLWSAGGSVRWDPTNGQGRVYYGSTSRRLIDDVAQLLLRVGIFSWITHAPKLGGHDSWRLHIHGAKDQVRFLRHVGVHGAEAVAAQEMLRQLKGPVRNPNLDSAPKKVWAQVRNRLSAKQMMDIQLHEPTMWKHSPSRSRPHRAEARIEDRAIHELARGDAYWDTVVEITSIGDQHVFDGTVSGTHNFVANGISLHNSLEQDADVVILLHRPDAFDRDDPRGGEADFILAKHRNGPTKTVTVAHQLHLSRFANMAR

Protein RecA = target: T3, Protein RecA (Mycobacterium tuberculosis, UniProt P9WHJ3); experiment: Fluorescence Cell-Free Homogeneous Dose Retest to Identify Inhibitors of RecA-Intein Splicing Activity. [Related pubchem assays (depositor defined):AID2097, AID2223, AID489010, AID492950]; format: functional
T3 sequence (P9WHJ3 whole entry): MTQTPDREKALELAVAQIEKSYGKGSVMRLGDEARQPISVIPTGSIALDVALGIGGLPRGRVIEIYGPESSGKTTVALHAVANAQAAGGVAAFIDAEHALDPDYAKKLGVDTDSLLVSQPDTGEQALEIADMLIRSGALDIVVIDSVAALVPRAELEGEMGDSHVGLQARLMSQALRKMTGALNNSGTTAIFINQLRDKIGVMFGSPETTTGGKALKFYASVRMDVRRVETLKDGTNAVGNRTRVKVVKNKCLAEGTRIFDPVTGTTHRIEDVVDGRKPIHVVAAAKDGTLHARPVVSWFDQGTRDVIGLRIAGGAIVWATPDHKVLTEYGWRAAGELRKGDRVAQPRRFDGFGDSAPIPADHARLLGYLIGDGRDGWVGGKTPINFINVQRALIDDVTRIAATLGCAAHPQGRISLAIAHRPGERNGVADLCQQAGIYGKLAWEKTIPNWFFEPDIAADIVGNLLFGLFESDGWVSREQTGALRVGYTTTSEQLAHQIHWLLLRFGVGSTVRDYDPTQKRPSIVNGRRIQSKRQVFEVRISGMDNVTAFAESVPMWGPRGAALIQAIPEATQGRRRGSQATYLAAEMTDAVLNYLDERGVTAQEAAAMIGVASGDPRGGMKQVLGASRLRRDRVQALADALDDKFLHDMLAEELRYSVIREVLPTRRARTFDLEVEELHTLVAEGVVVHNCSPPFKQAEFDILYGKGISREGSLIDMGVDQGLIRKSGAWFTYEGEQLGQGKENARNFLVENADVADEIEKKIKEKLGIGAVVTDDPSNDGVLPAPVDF

Genome polyprotein = Genome polyprotein (dengue virus type 2, UniProt P29990); experiment: flavivirus cap methylation enzyme inhibition – biochemical, confirmation dose response, primary screen (AID 588689); format: functional
Chain of Genome polyprotein (P29990 2492-3391 limits assumed): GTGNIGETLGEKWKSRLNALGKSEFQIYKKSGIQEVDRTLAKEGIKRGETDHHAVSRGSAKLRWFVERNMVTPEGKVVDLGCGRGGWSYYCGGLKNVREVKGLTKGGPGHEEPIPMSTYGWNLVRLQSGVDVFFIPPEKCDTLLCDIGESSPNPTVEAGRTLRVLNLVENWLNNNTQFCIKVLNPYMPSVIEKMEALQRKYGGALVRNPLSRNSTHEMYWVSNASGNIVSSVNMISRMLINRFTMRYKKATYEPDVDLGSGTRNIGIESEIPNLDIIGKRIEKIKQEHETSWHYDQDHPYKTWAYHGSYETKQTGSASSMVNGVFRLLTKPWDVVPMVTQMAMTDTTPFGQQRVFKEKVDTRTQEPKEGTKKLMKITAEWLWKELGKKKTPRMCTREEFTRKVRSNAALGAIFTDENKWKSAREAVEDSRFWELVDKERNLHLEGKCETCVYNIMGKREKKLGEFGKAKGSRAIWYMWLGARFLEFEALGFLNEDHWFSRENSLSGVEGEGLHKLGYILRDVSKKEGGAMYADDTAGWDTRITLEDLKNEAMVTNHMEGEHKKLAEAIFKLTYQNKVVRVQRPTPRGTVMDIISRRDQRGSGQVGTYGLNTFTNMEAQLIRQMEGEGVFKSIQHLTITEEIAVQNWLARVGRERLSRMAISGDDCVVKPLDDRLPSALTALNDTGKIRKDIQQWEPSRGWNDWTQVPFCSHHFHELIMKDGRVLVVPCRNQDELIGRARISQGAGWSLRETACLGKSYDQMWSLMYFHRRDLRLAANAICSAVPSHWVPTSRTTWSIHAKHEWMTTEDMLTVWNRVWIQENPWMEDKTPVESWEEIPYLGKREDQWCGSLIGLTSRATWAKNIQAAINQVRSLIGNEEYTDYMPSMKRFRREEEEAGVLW

Chain of Luciferin 4-monooxygenase (P08659 whole entry): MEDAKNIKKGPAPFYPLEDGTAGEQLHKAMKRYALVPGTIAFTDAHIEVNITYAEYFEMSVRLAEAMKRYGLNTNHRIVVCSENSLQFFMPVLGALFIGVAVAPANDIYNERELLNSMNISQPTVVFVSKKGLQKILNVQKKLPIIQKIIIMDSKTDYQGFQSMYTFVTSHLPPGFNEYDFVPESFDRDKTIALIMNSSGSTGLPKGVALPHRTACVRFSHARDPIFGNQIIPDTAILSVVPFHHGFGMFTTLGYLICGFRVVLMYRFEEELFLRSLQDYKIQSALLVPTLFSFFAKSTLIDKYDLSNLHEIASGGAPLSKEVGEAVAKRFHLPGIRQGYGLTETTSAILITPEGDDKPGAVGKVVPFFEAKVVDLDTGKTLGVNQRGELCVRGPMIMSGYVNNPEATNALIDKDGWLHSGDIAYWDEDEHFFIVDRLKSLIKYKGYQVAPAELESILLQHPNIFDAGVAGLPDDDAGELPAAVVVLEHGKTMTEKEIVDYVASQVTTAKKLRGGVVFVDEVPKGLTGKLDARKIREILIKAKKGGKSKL
Chain of Neuropeptide Y receptor type 1 (P25929 whole entry): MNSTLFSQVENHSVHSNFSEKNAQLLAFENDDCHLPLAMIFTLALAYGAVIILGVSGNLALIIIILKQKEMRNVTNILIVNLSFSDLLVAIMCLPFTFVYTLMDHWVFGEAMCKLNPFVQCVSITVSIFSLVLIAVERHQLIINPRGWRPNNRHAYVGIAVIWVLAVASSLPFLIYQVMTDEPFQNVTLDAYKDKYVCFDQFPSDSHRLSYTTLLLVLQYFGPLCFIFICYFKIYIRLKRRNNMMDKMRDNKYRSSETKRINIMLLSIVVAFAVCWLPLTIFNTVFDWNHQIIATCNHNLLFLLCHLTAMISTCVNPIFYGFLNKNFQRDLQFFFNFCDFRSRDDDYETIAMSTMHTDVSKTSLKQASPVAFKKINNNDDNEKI
Chain of Intestinal-type alkaline phosphatase (P09923 whole entry): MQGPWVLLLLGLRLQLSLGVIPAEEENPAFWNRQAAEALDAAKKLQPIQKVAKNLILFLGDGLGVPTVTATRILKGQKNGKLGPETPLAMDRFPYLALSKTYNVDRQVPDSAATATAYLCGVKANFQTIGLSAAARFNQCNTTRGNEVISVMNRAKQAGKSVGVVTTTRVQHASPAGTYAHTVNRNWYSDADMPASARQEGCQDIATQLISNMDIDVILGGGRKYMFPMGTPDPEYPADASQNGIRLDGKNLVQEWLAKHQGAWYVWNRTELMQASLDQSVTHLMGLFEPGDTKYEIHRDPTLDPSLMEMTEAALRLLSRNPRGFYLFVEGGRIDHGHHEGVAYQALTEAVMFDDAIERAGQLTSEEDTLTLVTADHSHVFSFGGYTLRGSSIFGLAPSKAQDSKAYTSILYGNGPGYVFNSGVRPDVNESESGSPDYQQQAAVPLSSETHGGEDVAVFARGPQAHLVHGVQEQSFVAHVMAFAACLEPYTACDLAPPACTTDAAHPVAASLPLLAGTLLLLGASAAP
Chain of Neuropeptide Y receptor type 2 (P49146 whole entry): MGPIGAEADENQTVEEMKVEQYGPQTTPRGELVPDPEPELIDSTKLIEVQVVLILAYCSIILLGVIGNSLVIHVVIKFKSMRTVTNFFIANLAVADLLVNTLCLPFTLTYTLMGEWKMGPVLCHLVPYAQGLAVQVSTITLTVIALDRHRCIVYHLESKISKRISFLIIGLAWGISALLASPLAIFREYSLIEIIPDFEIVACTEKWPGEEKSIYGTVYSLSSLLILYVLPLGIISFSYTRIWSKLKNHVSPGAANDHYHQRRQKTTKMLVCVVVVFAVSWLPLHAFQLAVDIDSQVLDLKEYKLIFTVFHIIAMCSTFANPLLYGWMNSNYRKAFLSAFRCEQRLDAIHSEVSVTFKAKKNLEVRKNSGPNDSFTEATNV

SMILES: Cc1ccc(NC(=O)c2ccncc2)cc1[N+](=O)[O-]
- IC50 [1]: > 100 µM (inactive)

SMILES: CCc1sc(C(=O)NNC(=O)CNC(=O)c2ccccc2F)cc1C
- AC50 (HeLa): 73 µM (active)

SMILES: Cc1ccc(-c2cc(C(=O)Nc3ccc4c(c3)OCCO4)c3ccccc3n2)cc1
- IC50 [2]: 5.01 µM (active)
- EC50 [3]: 1.06 µM (active)
- EC50 [4]: 16.9 µM (active)
- IC50 [5]: 5.35 µM (active)

SMILES: O=C(CSc1ccccc1)N1c2ccccc2Sc2ccccc21
- EC50 (Streptococcus): 239 µM (active)

SMILES: Cn1c(/N=C/c2c(O)ccc3ccccc23)nc2ccccc21
- IC50 [6]: > 50 µM (not active)
- IC50 [7]: 14.8 µM (active)
- AC50 [8]: 7.16 µM (active)
- EC50 (Protein RecA): 5.19 µM (active)
- IC50 (Genome polyprotein): 9.6 µM (active)

Source: ChEMBL document CHEMBL1201862, “PubChem BioAssay data set” (2004)
